The assay has as its target T1, hFASN enzyme (full length) (Homo sapiens, UniProt P49327).
T1 construct: 10 μL hFASN enzyme (full length, 300 ng, purified in house); made in house
In words: Fatty Acid Synthase (FASN) inhibition scintillation proximity assay. The settings on record: for inhibition at 10 µM: read-out: Human FASN % inhibition @ 10 μM, 10 μM test compound; for IC50: read-out: Human FASN pIC50 (converted). The assay is classed as biochemical. The procedure, abridged:
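Read-out relies on hydrophobic ³H-palmitate product, formed from ³H-acetyl-CoA and malonyl-CoA, binding streptavidin imaging beads, measured at 610±20 nm after at least 24 h. Full-length enzyme (300 ng) in phosphate buffer pH 7.5 with DTT; eight compound concentrations, 0.01–30 μM.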
(In general: Scintillation proximity formats need no separation of bound from free tracer.)

These results are taken from US10077261B2, “Imidazolin-5-one derivative useful as FASN inhibitors for the treatment of cancer” (Janssen Pharmaceutica NV, priority 2012, dated 2018).

T1 sequence (P49327 whole entry): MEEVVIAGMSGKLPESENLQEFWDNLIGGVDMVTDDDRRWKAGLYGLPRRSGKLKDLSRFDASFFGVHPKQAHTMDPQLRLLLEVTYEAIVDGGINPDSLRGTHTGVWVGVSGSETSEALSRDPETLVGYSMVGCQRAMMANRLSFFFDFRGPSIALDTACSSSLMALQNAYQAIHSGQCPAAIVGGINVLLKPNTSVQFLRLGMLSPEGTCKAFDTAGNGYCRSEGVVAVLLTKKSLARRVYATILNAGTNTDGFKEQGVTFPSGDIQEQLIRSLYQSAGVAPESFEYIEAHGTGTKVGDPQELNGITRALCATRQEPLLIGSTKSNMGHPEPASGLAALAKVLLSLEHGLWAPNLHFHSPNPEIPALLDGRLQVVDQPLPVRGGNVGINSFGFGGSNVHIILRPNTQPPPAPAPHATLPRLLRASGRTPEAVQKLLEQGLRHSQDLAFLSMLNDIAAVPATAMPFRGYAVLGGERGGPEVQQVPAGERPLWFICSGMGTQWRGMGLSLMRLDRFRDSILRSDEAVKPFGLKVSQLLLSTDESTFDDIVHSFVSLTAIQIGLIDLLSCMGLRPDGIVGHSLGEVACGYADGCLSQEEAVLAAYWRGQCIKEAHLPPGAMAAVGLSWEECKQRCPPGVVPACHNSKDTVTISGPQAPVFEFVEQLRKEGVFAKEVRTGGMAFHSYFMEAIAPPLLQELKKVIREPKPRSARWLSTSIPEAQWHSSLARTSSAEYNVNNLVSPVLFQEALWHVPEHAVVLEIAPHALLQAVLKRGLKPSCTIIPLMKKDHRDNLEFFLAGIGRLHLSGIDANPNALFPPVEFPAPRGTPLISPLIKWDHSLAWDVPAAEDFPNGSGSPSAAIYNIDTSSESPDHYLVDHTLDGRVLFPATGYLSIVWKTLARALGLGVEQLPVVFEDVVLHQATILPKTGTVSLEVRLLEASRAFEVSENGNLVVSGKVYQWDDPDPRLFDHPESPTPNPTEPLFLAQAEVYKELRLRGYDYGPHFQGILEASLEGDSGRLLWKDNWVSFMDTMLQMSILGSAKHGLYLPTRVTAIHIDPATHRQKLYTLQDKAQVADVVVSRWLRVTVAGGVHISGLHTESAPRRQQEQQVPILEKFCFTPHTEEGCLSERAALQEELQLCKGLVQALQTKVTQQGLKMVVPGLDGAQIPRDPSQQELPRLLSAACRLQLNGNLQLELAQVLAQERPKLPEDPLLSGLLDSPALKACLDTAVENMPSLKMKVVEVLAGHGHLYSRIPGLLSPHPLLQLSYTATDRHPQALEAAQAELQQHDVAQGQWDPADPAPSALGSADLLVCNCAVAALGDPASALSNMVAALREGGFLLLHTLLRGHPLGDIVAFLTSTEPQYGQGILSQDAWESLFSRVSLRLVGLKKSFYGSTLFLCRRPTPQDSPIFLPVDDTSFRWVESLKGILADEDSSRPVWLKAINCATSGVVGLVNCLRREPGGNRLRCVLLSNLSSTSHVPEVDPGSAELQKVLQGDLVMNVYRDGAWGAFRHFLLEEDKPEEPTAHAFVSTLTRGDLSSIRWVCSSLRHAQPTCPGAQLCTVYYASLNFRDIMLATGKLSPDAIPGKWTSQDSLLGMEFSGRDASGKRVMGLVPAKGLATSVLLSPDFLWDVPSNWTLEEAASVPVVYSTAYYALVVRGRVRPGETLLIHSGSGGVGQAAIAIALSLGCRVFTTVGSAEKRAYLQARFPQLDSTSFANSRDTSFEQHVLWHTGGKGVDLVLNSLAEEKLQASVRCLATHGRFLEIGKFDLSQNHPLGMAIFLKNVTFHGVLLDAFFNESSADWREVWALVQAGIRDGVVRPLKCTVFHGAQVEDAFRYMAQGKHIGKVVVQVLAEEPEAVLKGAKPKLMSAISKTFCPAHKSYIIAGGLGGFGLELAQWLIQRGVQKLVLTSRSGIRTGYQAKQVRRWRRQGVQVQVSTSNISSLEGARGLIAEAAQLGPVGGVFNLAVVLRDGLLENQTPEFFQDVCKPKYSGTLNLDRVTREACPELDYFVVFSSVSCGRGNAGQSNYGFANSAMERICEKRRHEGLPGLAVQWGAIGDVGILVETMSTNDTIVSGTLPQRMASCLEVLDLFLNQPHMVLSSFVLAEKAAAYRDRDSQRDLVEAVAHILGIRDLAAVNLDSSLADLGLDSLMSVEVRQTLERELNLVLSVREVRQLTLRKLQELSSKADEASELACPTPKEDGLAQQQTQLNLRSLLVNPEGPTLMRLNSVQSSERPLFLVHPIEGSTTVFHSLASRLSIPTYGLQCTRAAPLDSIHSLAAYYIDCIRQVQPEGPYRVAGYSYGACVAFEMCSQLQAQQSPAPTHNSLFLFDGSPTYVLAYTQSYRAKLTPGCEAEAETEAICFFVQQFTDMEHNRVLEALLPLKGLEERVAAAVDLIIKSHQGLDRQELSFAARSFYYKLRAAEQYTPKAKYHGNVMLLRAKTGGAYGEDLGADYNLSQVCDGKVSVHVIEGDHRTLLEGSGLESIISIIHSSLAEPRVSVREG

As usually defined, the inhibition is the relative decrease from the control value, in per cent. Take `O=C(C1CC1)N1CC[C@@H](CN2C(=O)C3(CC3)N=C2c2ccc(-c3ccc4c(c3)CCCO4)cc2)C1` [compound 464, 6-{[(3R)-1-(Cyclopropylcarbonyl)pyrrolidin-3-yl]methyl}-5-[4-(3,4-dihydro-2H-chromen-6-yl)phenyl]-4,6-diazaspiro[2.4]hept-4-en-7-one]: the inhibition at 10 µM turned out to be 66% and the IC50 was 4070 nM.

With `N#Cc1cc2cc(-c3ccc(C4=NC5(CC5)C(=O)N4CC4CN(C(=O)C5CC5)C4)cc3F)ccc2o1` [compound 477, 5-[4-(6-{[1-(Cyclopropylcarbonyl)azetidin-3-yl]methyl}-7-oxo-4,6-diazaspiro[2.4]hept-4-en-5-yl)-2-fluorophenyl]-1-benzofu8ran-2-carbonitrile], the inhibition at 10 µM was 67% and the IC50 is 3090 nM.

As for `O=C(C1CC1)N1CC[C@@H](CN2C(=O)C3(CC3)N=C2c2ccc(-c3cc4cc(Br)ccc4cn3)cc2)C1` [compound 478, 5-[4-(6-Bromoisoquinolin-3-yl)phenyl]-6-{[(3R)-1-(cyclopropylcarbonyl)pyrrolidin-3-yl]methyl}-4,6-diazaspiro[2.4]hept-4-en-7-one], the inhibition at 10 µM was 92% and the IC50 is 1380 nM.

On to `O=C(C1CC1)N1CC(CN2C(=O)C3(CC3)N=C2c2ccc(-c3ccc4nccnc4c3)cc2)C1` [compound 481, 6-{[1-(Cyclopropylcarbonyl)azetidin-3-yl]methyl}-5-(4-quinoxalin-6-ylphenyl)-4,6-diazaspiro[2.4]hept-4-en-7-one], for which the inhibition at 10 µM was 68% and the IC50 is 2190 nM.

With `O=C(C1CC1)N1CC(CN2C(=O)C3(CC3)N=C2c2ccc(-c3ccc(N4CCCC4)nc3)cc2)C1` [compound 482, 6-{[1-(Cyclopropylcarbonyl)azetidin-3-yl]methyl}-5-[4-(6-pyrrolidin-1-ylpyridin-3-yl)phenyl]-4,6-diazaspiro[2.4]hept-4-en-7-one], the inhibition at 10 µM stood at 76% and the IC50 was 1320 nM.

In the case of `Cn1nc2ccc(-c3ccc(C4=NC5(CC5)C(=O)N4C[C@@H]4CCN(C(=O)C5CC5)C4)cc3)cc2c1CO` [compound 487, 6-{[(3R)-1-(Cyclopropylcarbonyl)pyrrolidin-3-yl]methyl}-5-{4-[3-(hydroxymethyl)-2-methyl-2H-indazol-5-yl]phenyl}-4,6-diazaspiro[2.4]hept-4-en-7-one], the inhibition at 10 µM came out at 81% and the IC50 is 1170 nM.

In the case of `Cc1cc(-c2ccc(C3=NC4(CC4)C(=O)N3CC3CN(C(=O)C4CC4)C3)cc2)cc2cnn(C)c12` [compound 492, 6-{[1-(Cyclopropylcarbonyl)azetidin-3-yl]methyl}-5-[4-(1,7-dimethyl-1H-indazol-5-yl)phenyl]-4,6-dazaspiro[2.4]hept-4-en-7-one], the inhibition at 10 µM was determined as 77% and the IC50 is 1000 nM.

`Cn1c(=O)c2cc(-c3ccc(C4=NC5(CC5)C(=O)N4C[C@@H]4CCN(C(=O)C5CC5)C4)cc3)ccc2n1C` [compound 500, 5-[4-(6-{[(3R)-1-(Cyclopropylcarbonyl)pyrrolidin-3-yl]methyl}-7-oxo-4,6-diazaspiro[2.4]hept-4-rn-5-yl)phenyl]-1,2-dimethyl-1,2-dihydro-3H-indazol-3-one]: the inhibition at 10 µM came out at 74% and the IC50 was about 2750 nM.

For the molecule `O=C(C1CC1)N1CC(CN2C(=O)C3(CC3)N=C2c2ccc(-c3ccc4nn(CC5CC5)cc4c3)cc2)C1` [compound 501, 6-{[1-(Cyclopropylcarbonyl)azetidin-3-yl]methyl}-5-{4-[2-(cyclopropylmethyl)-2H-indazol-5-yl]phenyl}-4,6-diazaspiro[2.4]hept-4-en-7-one], the inhibition at 10 µM turned out to be 52% and the IC50 was 8320 nM.

`Cn1ncc2cc(-c3ccc(C4=NC5(CC5)C(=O)N4CC4CN(C(=O)C5CC5)C4)cc3)cnc21` [compound 503, 6-{[1-(Cyclopropylcarbonyl)azetidin-3-yl]methyl}-5-[4-(1-methyl-1H-pyrazolo[3,4-b]pyridin-5-yl)phenyl]-4,6-diazaspiro[2.4]hept-4-en-7-one]: the inhibition at 10 µM is 58% and the IC50 was 5750 nM.

Turning to `O=C(C1CC1)N1CC(CN2C(=O)C3(CC3)N=C2c2ccc(-c3ccc4oncc4c3)cc2)C1` [compound 504, 5-[4-(1,2-Benzisoxazol-5-yl)phenyl]-6-{[1-(cyclopropylcarbonyl)azetidin-3-yl]methyl}-4,6-diazaspiro[2.4]hept-4-en-7-one], the inhibition at 10 µM came to 42% and the IC50 was 8510 nM.

For the molecule `CCn1ncc2cc(-c3ccc(C4=NC5(CC5)C(=O)N4CC4CN(C(=O)C5CC5)C4)cc3)ccc21` [compound 505, 6-{[1-(Cyclopropylcarbonyl)azetidin-3-yl]methyl}-5-[4-(1-ethyl-1H-indazol-5-yl)phenyl]-4,6-diazaspiro[2.4]hept-4-en-7-one], the inhibition at 10 µM came to 80% and the IC50 is 1170 nM.

For the molecule `CCn1cc2cc(-c3ccc(C4=NC5(CC5)C(=O)N4CC4CN(C(=O)C5CC5)C4)cc3)ccc2n1` [compound 506, 6-{[1-(Cyclopropylcarbonyl)azetidin-3-yl]methyl}-5-[4-(2-ethyl-2H-indazol-5-yl)phenyl]-4,6-diazaspiro[2.4]hept-4-en-7-one], the inhibition at 10 µM is 61% and the IC50 was 3390 nM.

Consider `CC(C)n1ccc2cc(-c3ccc(C4=NC5(CC5)C(=O)N4CC4CN(C(=O)C5CC5)C4)cc3)ccc21` [compound 508, 6-{[1-(Cyclopropylcarbonyl)azetidin-3-yl]methyl}-5-{4-[1-(1-methylethyl)-1H-indol-5-yl]phenyl}-4,6-diazaspiro[2.4]hept-4-en-7-one], for which the inhibition at 10 µM stood at 74% and the IC50 was 2880 nM.

Regarding `O=C(C1CC1)N1CC(CN2C(=O)C3(CC3)N=C2c2ccc(-c3ccc(-n4ccnc4)nc3)cc2)C1` [compound 509, 6-{[1-(Cyclopropylcarbonyl)azetidin-3-yl]methyl}-5-{4-[6-(1H-imidazol-1-yl)pyridin-3-yl]phenyl}-4,6-diazaspiro[2.4]hept-4-en-7-one], the inhibition at 10 µM amounted to 69% and the IC50 is 2000 nM.

As for `Cc1ccc2ccc(-c3ccc(C4=NC5(CC5)C(=O)N4CC4CN(C(=O)C5CC5)C4)cc3)cc2n1` [compound 513, 6-{[1-(Cyclopropylcarbonyl)azetidin-3-yl]methyl}-5-[4-(2-methylquinolin-7-yl)phenyl]-4,6-diazaspiro[2.4]hept-4-en-7-one], the inhibition at 10 µM came out at 85% and the IC50 is 1230 nM.

For the molecule `Cn1nccc1-c1ccc(-c2ccc(C3=NC4(CC4)C(=O)N3CC3CN(C(=O)C4CC4)C3)cc2)cc1` [compound 514, 6-{[1-(Cyclopropylcarbonyl)azetidin-3-yl]methyl}-5-[4′-(1-methyl-1H-pyrazol-5-yl)biphenyl-4-yl]-4,6-diazaspiro[2.4]hept-4-en-7-one], the inhibition at 10 µM was 56% and the IC50 is 7410 nM.

On to `CC(C)n1cc(-c2ccc(-c3ccc(C4=NC5(CC5)C(=O)N4CC4CN(C(=O)C5CC5)C4)cc3)cn2)cn1` [compound 516, 6-{[1-(Cyclopropylcarbonyl)azetidin-3-yl]methyl}-5-(4-{6-[1-(1-methylethyl)-1H-pyrazol-4-yl]pyridin-3-yl}phenyl)-4,6-diazaspiro[2.4]hept-4-en-7-one], for which the inhibition at 10 µM turned out to be 83% and the IC50 was 1170 nM.

For the molecule `CC(O)C(=O)N1CC[C@@H](CN2C(=O)C3(CCOCC3)N=C2c2ccc(-c3ccc(-c4cnn(C)c4)cc3)cc2)C1` (stereo partly drawn) [compound 656, 3-{[(3R)-1-(2-Hydroxypropanoyl)pyrrolidin-3-yl]methyl}-2-[4′-(1-methyl-1H-pyrazol-4-yl)biphenyl-4-yl]-8-oxa-1,3-diazaspiro[4.5]dec-1-en-4-one], the inhibition at 10 µM was determined as 74% and the IC50 was 2000 nM.

`COC(=O)N1CC[C@@H](CN2C(=O)C3(CCOCC3)N=C2c2ccc(-c3ccc(-c4cnn(C)c4)cc3)cc2)C1` [compound 658, Methyl (3S)-3-({2-[4′-(1-methyl-1H-pyrazol-4-yl)biphenyl-4-yl]-4-oxo-8-oxa-1,3-diazaspiro[4.5]dec-1-en-3-yl}methyl)pyrrolidin-1-carboxlate]: the inhibition at 10 µM came to 52% and the IC50 is 8710 nM.

Take `Cn1cc(-c2ccc(-c3ccc(C4=NC5(CCOCC5)C(=O)N4C[C@@H]4CCN(C(=O)C(F)(F)F)C4)cc3)cc2)cn1` [compound 659, 2-[4′-(1-Methyl-1H-pyrazol-4-yl)biphenyl-4-yl]-3-{[(3R)-1-(trifluoroacetyl)pyrrolidin-3-yl]methyl}-8-oxa-1,3-diazaspiro[4.5]dec-1-en-4-one]: the inhibition at 10 µM was determined as 38% and the IC50 is about 8320 nM.

For the molecule `Cn1cc(-c2ccc(-c3ccc(C4=NC5(CCOCC5)C(=O)N4C[C@@H]4CCN(C(=O)N5CCCC5)C4)cc3)cc2)cn1` [compound 660, 2-[4′-(1-Methyl-1H-pyrazol-4-yl)biphenyl-4-yl]-3-{[(3S)-1-(pyrrolidin-1-ylcarbonyl)pyrrolidin-3-yl]methyl}-8-oxa-1,3-diazaspiro[4.5]dec-1-en-4-one], the inhibition at 10 µM amounted to 76% and the IC50 is 2240 nM.

As for `O=C(c1nccs1)N1CC[C@@H](CN2C(=O)C3(CCOCC3)N=C2c2ccc(-c3ccc4cccnc4c3)cc2)C1` [compound 666, 2-(4-Quinolin-7-ylphenyl)-3-{[(3R)-1-(1,3-thiazol-2-ylcarbonyl)pyrrolidin-3-yl]methyl}-8-oxa-1,3-diazaspiro[4.5]dec-1-en-4-one], the inhibition at 10 µM was 62% and the IC50 is about 5010 nM.

Turning to `CC(O)C(=O)N1CC[C@@H](CN2C(=O)C3(CCOCC3)N=C2c2ccc(-c3ccc4occc4c3)cc2)C1` (stereo partly drawn) [compound 668, 2-[4-(1-Benzofuran-5-yl)phenyl]-3-{[(3R)-1-(2-hydroxypropanoyl)pyrrolidin-3-yl]methyl}-8-oxa-1,3-diazaspiro[4.5]dec-1-en-4-one], the inhibition at 10 µM was determined as 86% and the IC50 was 1170 nM.
